Patent US9795695B2, “Process for the preparation of gadobenate dimeglumine complex in a solid form” (BRACCO IMAGING S.p.A., priority 2009, dated 2017)

Experiment: dissolution of the solid form in water
Format: physicochemical
Details: for time for dissolution in water: room temperature

SMILES: CNC[C@H](O)[C@@H](O)[C@H](O)[C@H](O)CO.CNC[C@H](O)[C@@H](O)[C@H](O)[C@H](O)CO.O=C([O-])CN(CCN(CC(=O)[O-])CC(=O)O)CCN(CC(=O)O)C(COCc1ccccc1)C(=O)[O-].[Gd+3] (stereo not shown) [gadobenate dimeglumine]
- water required to dissolve 1 g of product (per 1 g of product, room temperature (20° C. to 30° C.)): less than 1 mL
- time for dissolution in water: few seconds
- time for dissolution in water (listed as powdered gadobenate): less than one minute

SMILES: CNC[C@H](O)[C@@H](O)[C@H](O)[C@H](O)CO.CNC[C@H](O)[C@@H](O)[C@H](O)[C@H](O)CO.O=C([O-])CN(CCN(CC(=O)[O-])CC(=O)O)CCN(CC(=O)O)C(COCc1ccccc1)C(=O)[O-].[Gd+3] (stereo not shown) [Comparative Example 2a, gadobenate dimeglumine]
- ease of dissolution (in words) (aqueous solution): difficult to collect and, in case, to re-dissolve
